According to patent US9409915B2, “Substituted aza-bicyclic imidazole derivatives useful as TRPM8 receptor modulators” (Janssen Pharmaceutica NV, priority 2010, dated 2016):
Where a name gives a salt, the structure may show the parent alone.

Experiments:
Male Sprague Dawley rats = test: Inhibition of icilin-induced "wet-dog" shakes in rats; assay type: in vivo; conditions: 10 mg/kg p.o. in 10% HP-β-CD, 60 min before icilin 3.0 mg/kg i.p.; rat wet-dog shakes
Method: Male Sprague Dawley rats (220-450 g, Charles River Labs, n=6-9/treatment) were used to evaluate the ability of test compounds to block icilin-induced “wet-dog” shakes (WDS). The test compound was administered in 10% hydroxypropyl-β-cyclodextrin (HP-β-CD), p.o., 60 min before icilin. Icilin was then administered in 10% solutol/H2O, at 3.0 mg/kg, i.p., and spontaneous “wet-dog” shakes were counted 10 min following the icilin injection over a 10-min period.

canine TRPM8 = canine TRPM8 (Canis lupus familiaris, UniProt Q1A7N1); test: In vitro canine TRPM8 functional assay (Ca2+-sensitive fluorescent dye, icilin activation); assay type: cell-based; conditions: HEK293 cells stably expressing canine TRPM8, icilin-induced Ca2+ response; for IC50: eight-point concentration-response
Chain of canine TRPM8 (Q1A7N1 1-1104): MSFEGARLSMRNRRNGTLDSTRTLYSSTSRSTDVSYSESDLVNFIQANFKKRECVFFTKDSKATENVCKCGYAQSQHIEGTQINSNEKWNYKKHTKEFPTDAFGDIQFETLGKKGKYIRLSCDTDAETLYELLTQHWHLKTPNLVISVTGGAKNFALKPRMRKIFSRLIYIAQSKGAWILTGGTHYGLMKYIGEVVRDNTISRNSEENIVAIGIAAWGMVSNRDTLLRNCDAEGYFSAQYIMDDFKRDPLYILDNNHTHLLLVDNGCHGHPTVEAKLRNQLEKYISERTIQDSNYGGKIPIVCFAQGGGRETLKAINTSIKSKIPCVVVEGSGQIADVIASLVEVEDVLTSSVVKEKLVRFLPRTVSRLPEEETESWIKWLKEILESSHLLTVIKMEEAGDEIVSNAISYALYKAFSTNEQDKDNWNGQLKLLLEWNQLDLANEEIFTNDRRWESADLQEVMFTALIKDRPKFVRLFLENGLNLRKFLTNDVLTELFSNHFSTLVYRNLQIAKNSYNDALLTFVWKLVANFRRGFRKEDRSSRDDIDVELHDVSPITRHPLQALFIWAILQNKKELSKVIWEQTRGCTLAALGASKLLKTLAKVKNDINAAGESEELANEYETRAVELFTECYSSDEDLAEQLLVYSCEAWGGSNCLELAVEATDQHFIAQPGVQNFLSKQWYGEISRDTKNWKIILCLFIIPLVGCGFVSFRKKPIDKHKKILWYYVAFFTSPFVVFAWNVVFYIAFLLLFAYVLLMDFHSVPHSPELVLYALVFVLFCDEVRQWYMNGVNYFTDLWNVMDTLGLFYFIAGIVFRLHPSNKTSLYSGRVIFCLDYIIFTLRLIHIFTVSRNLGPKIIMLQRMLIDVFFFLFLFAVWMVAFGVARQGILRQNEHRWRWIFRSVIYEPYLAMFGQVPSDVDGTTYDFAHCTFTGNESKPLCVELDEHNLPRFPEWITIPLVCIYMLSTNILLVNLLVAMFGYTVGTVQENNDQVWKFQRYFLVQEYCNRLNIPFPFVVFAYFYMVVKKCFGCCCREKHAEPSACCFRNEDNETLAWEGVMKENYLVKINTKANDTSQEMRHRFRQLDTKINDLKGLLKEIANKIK

Compound | Icilin % Inhibition @ 1.5 h, 10 mg/kg (Male Sprague Dawley rats) | inhibition at 0.2 µM (canine TRPM8; 0.2 μM compound) | IC50 (canine TRPM8) | % Inh @ 0.2 μM (canine TRPM8; 0.2 μM compound)
COc1nc(-c2ccccc2Cl)cc2nc(-c3c(C#N)c(C(C)(C)C)nn3C)[nH]c12.CS(=O)(=O)O [Compound 17, 3-tert-Butyl-5-[6-(2-chloro-phenyl)-4-methoxy-3H-imidazo[4,5-c]pyridine-2-yl]-1-methyl-1H-pyrazole-4-carbonitrile methanesulfonic acid salt] | 38% | 99% | 1.7 nM | 
Cn1nc(C(C)(C)C)c(Cl)c1-c1nc2cc(-c3ccccc3OC(F)(F)F)nc(OCC(F)(F)F)c2[nH]1 [Compound 90, 2-(5-tert-Butyl-4-chloro-2-methyl-2H-pyrazol-3-yl)-4-(2,2,2-trifluoro-ethoxy)-6-(2-trifluoromethoxyphenyl)-3H-imidazo[4,5-c]pyridine sodium salt] |  | 99% | 0.73 nM | 
Cn1nc(C(C)(C)C)c(Cl)c1-c1nc2cc(-c3ccccc3F)nc(OCC(F)(F)F)c2[nH]1 [Compound 91, 2-(5-tert-Butyl-4-chloro-2-methyl-2H-pyrazol-3-yl)-6-(2-fluorophenyl)-4-(2,2,2-trifluoroethoxy)-3H-imidazo[4,5-c]pyridine sodium salt] |  | 99% | 3.8 nM | 
CC(C)Oc1nc(-c2ccccc2F)cc2nc(-c3c(Cl)c(C(C)(C)C)nn3C)[nH]c12 [Compound 92, 2-(5-tert-Butyl-4-chloro-2-methyl-2H-pyrazol-3-yl)-6-(2-fluorophenyl)-4-isopropoxy-3H-imidazo[4,5-c]pyridine sodium salt] |  | 99% | 2.8 nM | 
CC(C)Oc1nc(-c2ccccc2OC(F)(F)F)cc2nc(-c3c(Cl)c(C(C)(C)C)nn3C)[nH]c12 [Compound 93, 2-(5-tert-Butyl-4-chloro-2-methyl-2H-pyrazol-3-yl)-4-isopropoxy-6-(2-trifluoromethoxyphenyl)-3H-imidazo[4,5-c]pyridine sodium salt] |  | 99% | 1.2 nM | 
Cn1nc(C(C)(C)C)c(Cl)c1-c1nc2nc(-c3ccccc3OC(F)(F)F)cnc2[nH]1 [Compound 94, 2-(5-tert-Butyl-4-chloro-2-methyl-2H-pyrazol-3-yl)-5-(2-trifluoromethoxy-phenyl)-1H-imidazo[4,5-b]pyrazine] |  | 99% | 22.5 nM | 
Cn1nc(C(C)(C)C)c(Cl)c1-c1nc2nc(-c3ccccc3C(F)(F)F)cnc2[nH]1 [Compound 95, 2-(5-tert-butyl-4-chloro-2-methyl-2H-pyrazol-3-yl)-6-(2-trifluoromethyl-phenyl)-1H-imidazo[4,5-b]pyrazine] |  | 100% | 27 nM | 
COc1nc(-c2ccccc2Cl)cc2nc(-c3csc(C(C)C)c3)[nH]c12 [Compound 98, 6-(2-Chloro-phenyl)-2-(5-isopropyl-thiophen-3-yl)-4-methoxy-3H-imidazo[4,5-c]pyridine] |  | 100% | 14 nM | 
COc1nc(-c2ccccc2Cl)cc2nc(-c3cnn(C(C)(C)C)c3C)[nH]c12 [Compound 100, 2-(1-tert-Butyl-5-methyl-1H-pyrazol-4-yl)-6-(2-chloro-phenyl)-4-methoxy-3H-imidazo[4,5-c]pyridine sodium salt] |  | 94% | 61.3 nM | 
COc1nc(-c2ccccc2Cl)cc2nc(-c3cnn(C(C)(C)C)c3)[nH]c12 [Compound 102, 2-(1-tert-Butyl-1H-pyrazol-4-yl)-6-(2-chloro-phenyl)-4-methoxy-3H-imidazo[4,5-c]pyridine sodium salt] |  | 70% | 120 nM | 
Cn1nc(C(C)(C)C)c(Cl)c1-c1nc2nc(-c3ccccc3Cl)cnc2[nH]1 [Compound 110] |  |  | 24 nM | 99%
COc1nc(-c2ccccc2Cl)cc2nc(-c3nc(C(C)(C)C)cn3C)[nH]c12 [Compound 111, 2-(4-tert-Butyl-1-methyl-1H-imidazol-2-yl)-6-(2-chloro-phenyl)-4-methoxy-3H-imidazo[4,5-c]pyridine] |  | 62% |  | 
COCCOc1cc(-c2ccccc2C(F)(F)F)nc2nc(-c3cc(C(C)(C)C)nn3C)[nH]c12 [Compound 112, 2-(5-tert-Butyl-2-methyl-2H-pyrazol-3-yl)-7-(2-methoxy-ethoxy)-5-(2-trifluoromethyl-phenyl)-1H-imidazo[4,5-b]pyridine methanesulfonic acid salt] |  | 98% | 19 nM | 
Cn1nc(C(C)(C)C)c(Cl)c1-c1nc2nc(-c3ccccc3C(F)(F)F)cc(Cl)c2[nH]1 [compound 5, hydrochloride] |  | 99% |  | 
Cn1nc(C(C)(C)C)c(Cl)c1-c1nc2cc(-c3ccccc3C(F)(F)F)nc(C#N)c2[nH]1 [compound 60, 2-(5-tert-butyl-4-chloro-2-methyl-2H-pyrazol-3-yl)-6-(2-trifluoromethyl-phenyl)-3H-imidazo[4,5-c]pyridine-4-carbonitrile benzenesulfonic acid salt] |  | 99% |  | 
